Here are results for 15 compounds from PMC10716637 (RSC Advances, 2023).

In one data set the target is EGFR^T790M (Homo sapiens, UniProt P00533, T790M). Briefly: In vitro EGFR^T790M kinase inhibitory assay. It is filed as biochemical.
A further data set concerns A549. As to the kind of experiment: MTT cytotoxicity assay, A549. Format: cell-based, human. Conditions: for EC50: Homo sapiens, A549, read-out: EC50 A549; for Selectivity index (SI): folds toxicity in A549 than in VERO cells: CC50 VERO vs EC50 A549. Background: Tetrazolium assays rely on reduction of a dye to a coloured formazan, in cell work by metabolically active cells.

Another data set relates to MCF-7. As to the kind of experiment: MTT cytotoxicity assay, MCF-7. Format: cell-based, human. Conditions: for EC50: Homo sapiens, MCF7, read-out: EC50 MCF-7; for Selectivity index (SI): folds toxic in MCF-7 than in normal VERO cells: CC50 VERO vs EC50 MCF-7.
The subject of a further data set is HCT116. Briefly: MTT cytotoxicity assay, HCT116. Format: cell-based, human. The following applies: for EC50: Homo sapiens, HCT-116, read-out: EC50 HCT116; for Selectivity index (SI): folds lethalness in HCT-116 than in VERO cells: CC50 VERO vs EC50 HCT-116.
A further data set concerns the target VEGFR-2 (Homo sapiens, UniProt P35968). Briefly: In vitro VEGFR-2 kinase inhibitory assay. Format: biochemical.
The next data set relates to HepG2. Briefly: MTT cytotoxicity assay, HepG2. It is filed as cell-based, human. The following applies: for EC50: Homo sapiens, HepG2, read-out: EC50 HepG2; for Selectivity index (SI): folds more toxic respecting HepG2 than normal VERO cells: CC50 VERO vs EC50 HepG2.
The nature of data set [1]: Cytotoxicity against VERO normal cell lines. The following applies: African green monkey, VERO normal cells.
The next data set concerns the target EGFR^WT (Homo sapiens, UniProt P00533). Briefly: In vitro EGFR^WT kinase inhibitory assay. It is filed as biochemical.

Like-named read-outs stand apart in the source and are kept apart here.

VEGFR-2, sequence (P35968 20-1356): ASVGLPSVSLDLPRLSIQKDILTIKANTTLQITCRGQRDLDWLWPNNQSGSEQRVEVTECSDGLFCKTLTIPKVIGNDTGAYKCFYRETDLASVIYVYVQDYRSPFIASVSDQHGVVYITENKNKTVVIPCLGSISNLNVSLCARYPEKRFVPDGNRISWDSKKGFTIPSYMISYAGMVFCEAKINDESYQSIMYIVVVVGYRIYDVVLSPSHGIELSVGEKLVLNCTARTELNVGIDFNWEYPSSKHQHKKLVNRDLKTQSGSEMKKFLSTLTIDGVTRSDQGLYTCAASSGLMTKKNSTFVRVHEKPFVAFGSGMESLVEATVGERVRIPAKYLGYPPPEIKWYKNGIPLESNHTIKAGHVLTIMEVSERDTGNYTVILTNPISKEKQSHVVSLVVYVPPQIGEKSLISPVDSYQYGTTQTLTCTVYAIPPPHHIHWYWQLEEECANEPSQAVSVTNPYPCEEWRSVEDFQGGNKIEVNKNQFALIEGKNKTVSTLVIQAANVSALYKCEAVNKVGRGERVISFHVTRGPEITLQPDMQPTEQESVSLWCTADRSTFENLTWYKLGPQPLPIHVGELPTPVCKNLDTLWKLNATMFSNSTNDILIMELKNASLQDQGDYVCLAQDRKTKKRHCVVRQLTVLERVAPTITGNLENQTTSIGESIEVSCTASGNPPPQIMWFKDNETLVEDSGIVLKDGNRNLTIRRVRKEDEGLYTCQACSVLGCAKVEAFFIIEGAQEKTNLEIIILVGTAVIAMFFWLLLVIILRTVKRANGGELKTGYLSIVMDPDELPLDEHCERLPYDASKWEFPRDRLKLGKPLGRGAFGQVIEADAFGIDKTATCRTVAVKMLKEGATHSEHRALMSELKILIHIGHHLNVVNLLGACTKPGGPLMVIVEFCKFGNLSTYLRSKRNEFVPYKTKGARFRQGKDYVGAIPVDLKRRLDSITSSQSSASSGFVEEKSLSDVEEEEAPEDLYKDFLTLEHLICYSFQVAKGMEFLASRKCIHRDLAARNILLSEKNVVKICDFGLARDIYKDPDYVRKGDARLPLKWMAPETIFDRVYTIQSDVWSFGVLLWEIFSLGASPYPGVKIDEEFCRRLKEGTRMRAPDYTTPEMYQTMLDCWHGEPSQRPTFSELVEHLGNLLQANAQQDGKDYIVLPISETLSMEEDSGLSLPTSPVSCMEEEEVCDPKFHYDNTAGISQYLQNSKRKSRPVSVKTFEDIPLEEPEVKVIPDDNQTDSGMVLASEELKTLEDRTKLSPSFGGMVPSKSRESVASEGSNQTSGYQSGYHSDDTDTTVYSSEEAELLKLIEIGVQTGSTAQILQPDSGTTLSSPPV
EGFR^T790M, sequence (P00533 25-1210 T790M): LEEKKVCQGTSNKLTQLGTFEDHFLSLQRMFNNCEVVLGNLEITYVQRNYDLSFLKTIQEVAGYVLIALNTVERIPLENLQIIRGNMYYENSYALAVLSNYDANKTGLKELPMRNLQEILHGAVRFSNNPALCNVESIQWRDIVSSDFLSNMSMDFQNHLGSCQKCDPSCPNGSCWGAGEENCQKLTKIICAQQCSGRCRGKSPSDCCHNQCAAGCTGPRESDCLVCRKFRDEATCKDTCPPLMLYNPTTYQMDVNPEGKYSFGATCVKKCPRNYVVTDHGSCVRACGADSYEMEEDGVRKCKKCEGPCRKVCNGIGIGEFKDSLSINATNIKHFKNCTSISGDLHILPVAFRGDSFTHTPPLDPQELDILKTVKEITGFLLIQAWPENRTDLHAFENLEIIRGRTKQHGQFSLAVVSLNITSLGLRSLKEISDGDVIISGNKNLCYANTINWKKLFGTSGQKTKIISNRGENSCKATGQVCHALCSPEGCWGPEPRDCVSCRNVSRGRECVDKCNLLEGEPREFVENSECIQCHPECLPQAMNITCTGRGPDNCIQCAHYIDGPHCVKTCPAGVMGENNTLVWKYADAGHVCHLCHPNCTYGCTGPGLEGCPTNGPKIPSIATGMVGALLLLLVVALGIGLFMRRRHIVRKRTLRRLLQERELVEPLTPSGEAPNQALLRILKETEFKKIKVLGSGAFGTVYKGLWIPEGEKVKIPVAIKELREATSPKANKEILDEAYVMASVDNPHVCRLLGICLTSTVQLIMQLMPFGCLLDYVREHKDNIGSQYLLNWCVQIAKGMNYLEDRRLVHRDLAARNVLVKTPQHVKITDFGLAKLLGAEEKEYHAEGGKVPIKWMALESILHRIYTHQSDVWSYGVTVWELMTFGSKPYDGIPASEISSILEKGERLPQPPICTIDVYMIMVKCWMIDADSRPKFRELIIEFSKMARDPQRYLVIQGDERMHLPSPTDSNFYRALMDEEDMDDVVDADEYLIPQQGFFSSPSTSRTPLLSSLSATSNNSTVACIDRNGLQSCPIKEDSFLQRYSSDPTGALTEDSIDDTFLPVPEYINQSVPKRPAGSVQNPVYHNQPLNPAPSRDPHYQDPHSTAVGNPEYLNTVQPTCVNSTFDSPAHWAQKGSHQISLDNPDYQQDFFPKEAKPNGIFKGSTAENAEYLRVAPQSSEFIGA
EGFR^WT, sequence (P00533 25-1210): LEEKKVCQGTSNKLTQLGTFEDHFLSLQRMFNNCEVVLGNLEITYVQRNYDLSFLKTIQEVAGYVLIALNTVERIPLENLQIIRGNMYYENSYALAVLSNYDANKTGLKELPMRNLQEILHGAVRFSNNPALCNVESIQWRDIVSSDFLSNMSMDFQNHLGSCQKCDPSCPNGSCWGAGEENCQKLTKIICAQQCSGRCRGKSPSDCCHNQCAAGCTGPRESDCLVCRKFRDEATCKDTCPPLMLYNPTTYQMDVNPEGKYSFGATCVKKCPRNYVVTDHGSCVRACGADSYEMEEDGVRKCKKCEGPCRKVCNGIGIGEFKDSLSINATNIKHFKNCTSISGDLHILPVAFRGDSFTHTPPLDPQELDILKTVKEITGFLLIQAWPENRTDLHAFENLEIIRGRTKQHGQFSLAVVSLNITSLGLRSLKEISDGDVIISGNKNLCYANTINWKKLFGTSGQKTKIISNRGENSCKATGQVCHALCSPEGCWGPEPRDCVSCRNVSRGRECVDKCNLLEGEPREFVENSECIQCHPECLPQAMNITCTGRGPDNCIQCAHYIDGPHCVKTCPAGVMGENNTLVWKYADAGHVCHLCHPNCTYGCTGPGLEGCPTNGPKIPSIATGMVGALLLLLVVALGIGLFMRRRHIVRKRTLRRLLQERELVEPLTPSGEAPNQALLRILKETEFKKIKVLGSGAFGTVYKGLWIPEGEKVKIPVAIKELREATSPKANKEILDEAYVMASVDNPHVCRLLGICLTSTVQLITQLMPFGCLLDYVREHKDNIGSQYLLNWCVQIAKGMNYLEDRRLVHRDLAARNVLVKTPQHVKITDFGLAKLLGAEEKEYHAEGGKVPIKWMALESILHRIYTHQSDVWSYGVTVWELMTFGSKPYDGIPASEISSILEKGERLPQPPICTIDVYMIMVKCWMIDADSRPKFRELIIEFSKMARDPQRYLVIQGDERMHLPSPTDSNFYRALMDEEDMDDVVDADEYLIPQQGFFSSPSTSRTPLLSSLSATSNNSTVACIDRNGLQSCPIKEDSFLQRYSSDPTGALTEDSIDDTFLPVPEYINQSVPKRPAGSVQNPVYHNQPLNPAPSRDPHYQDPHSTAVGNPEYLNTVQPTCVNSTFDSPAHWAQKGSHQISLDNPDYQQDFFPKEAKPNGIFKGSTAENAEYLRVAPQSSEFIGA

Take `CCCn1c(=O)n(CC(=O)Nc2ccc(C(=O)NN)cc2)c(=O)c2cc(I)ccc21` [Compound 7b, N-[4-(hydrazinecarbonyl)phenyl]-2-(6-iodo-2,4-dioxo-1-propyl-1,4-dihydroquinazolin-3(2H)-yl)acetamide]: the IC50 – broadly, the point on the concentration scale where inhibition reaches its midpoint – against EGFR^T790M worked out at 2.05 ± 0.5 µM; on VEGFR-2, 2.25 ± 0.25 µM. For the same compound, the EC50 (as a rule, the concentration giving half of the maximal effect) in the data set on A549 was determined as 15.1 ± 1.5 µM; with MCF-7, 13.9 ± 1.5 µM; in the data set on HCT116, 15.9 ± 1.5 µM; in the data set with HepG2, 15.5 ± 1.5 µM.

As to `CCCn1c(=O)n(CC(=O)Nc2ccc(C(=O)NN=Cc3ccc(Cl)cc3)cc2)c(=O)c2cc(I)ccc21` [Compound 9e, N-{4-[2-(4-chlorobenzylidene)hydrazine-1-carbonyl]phenyl}-2-{6-iodo-2,4-dioxo-1-propyl-1,4-dihydroquinazolin-3(2H)-yl}acetamide], the IC50 was 0.3 ± 0.3 µM at EGFR^T790M, 0.25 ± 0.03 µM on EGFR^WT and 1.2 ± 0.1 µM at VEGFR-2. Moreover, half-maximal cytotoxicity in data set [1] (CC50) was put at 46 ± 0.5 µM. Further, the “Selectivity index (SI): folds toxicity in A549 than in VERO cells” value (from here on “Selectivity index (SI): folds toxicity”) with A549 is given as 7.30 folds. Further, the EC50 was determined as 6.3 ± 0.7 µM with A549, 7.3 ± 0.7 µM in the data set on MCF-7, 6.7 ± 0.7 µM with HCT116 and 7.36 ± 0.7 µM in the data set on HepG2. Further, in the data set with MCF-7, the “Selectivity index (SI): folds toxic in MCF-7 than in normal VERO cells” value turned out to be 6.30 folds. Further, the “Selectivity index (SI): folds lethalness in HCT-116 than in VERO cells” value (“Selectivity index (SI): folds lethalness” for short) in the data set with HCT116 is 6.87 folds. Besides, the “Selectivity index (SI): folds more toxic respecting HepG2 than normal VERO cells” value with HepG2 stood at 6.25 folds.

On to `CCn1c(=O)n(CC(=O)Nc2ccc(C(=O)NN=Cc3ccccc3)cc2)c(=O)c2cc(I)ccc21` [Compound 9a, N-[4-(2-benzylidenehydrazine-1-carbonyl)phenyl]-2-[1-ethyl-6-iodo-2,4-dioxo-1,4-dihydroquinazolin-3(2H)-yl]acetamide], for which the IC50 against EGFR^T790M was determined as 0.75 ± 0.5 µM; against EGFR^T790M (IC50 EGFR^T790M) it was 1.5 µM; against VEGFR-2, 1 ± 0.1 µM. Half-maximal cytotoxicity in data set [1] (CC50) was put at 45.5 ± 0.5 µM. Besides, in the data set with A549, the “Selectivity index (SI): folds toxicity” value amounted to 6.74 folds. The EC50 was found to be 6.75 ± 0.7 µM with A549, 7.5 ± 0.7 µM in the data set on MCF-7, 6.29 ± 0.7 µM with HCT116 and 6.8 ± 0.7 µM in the data set on HepG2. For the same compound, the “Selectivity index (SI): folds toxic in MCF-7 than in normal VERO cells” value with MCF-7 is reported as 6.07 folds. In the data set on HCT116, the “Selectivity index (SI): folds lethalness” value amounted to 7.23 folds. For the same compound, the “Selectivity index (SI): folds more toxic respecting HepG2 than normal VERO cells” value in the data set on HepG2 is recorded as 6.69 folds.

Take `C#Cc1cccc(Nc2ncnc3cc(OCCOC)c(OCCOC)cc23)c1` [Erlotinib, reference compound]: the EC50 came to 5.49 ± 0.45 µM with A549, 13.9 ± 1.3 µM in the data set on MCF-7, 8.2 ± 0.34 µM with HCT116 and 7.73 ± 0.67 µM in the data set on HepG2.

Consider `CCCn1c(=O)n(CC(=O)Nc2ccc(-c3nnc(S)o3)cc2)c(=O)c2cc(I)ccc21` [Compound 8b, 2-[6-Iodo-2,4-dioxo-1-propyl-1,4-dihydroquinazolin-3(2H)-yl]-N-[4-(5-mercapto-1,3,4-oxadiazol-2-yl)phenyl]acetamide], for which the IC50 at EGFR^T790M came out at 0.45 ± 0.35 µM; against EGFR^WT, 0.38 ± 0.03 µM; against VEGFR-2, 1.38 ± 0.1 µM. Besides, it took 50.75 ± 0.5 µM to reach half-maximal cytotoxicity in data set [1] (CC50). Moreover, the “Selectivity index (SI): folds toxicity” value in the data set on A549 stood at 7.57 folds. For the same compound, the EC50 in the data set with A549 is 6.7 ± 0.5 µM; with MCF-7 it was 7.45 ± 0.7 µM; with HCT116, 6.75 ± 0.7 µM; with HepG2 it was 7.5 ± 0.7 µM. Also, the “Selectivity index (SI): folds toxic in MCF-7 than in normal VERO cells” value in the data set on MCF-7 amounted to 6.81 folds. The “Selectivity index (SI): folds lethalness” value in the data set with HCT116 was 7.52 folds. Further, the “Selectivity index (SI): folds more toxic respecting HepG2 than normal VERO cells” value with HepG2 turned out to be 6.77 folds.

Regarding `CCn1c(=O)n(CC(=O)Nc2ccc(C(=O)OC)cc2)c(=O)c2cc(I)ccc21` [Compound 5a, Methyl 4-{2-[1-ethyl-6-iodo-2,4-dioxo-1,4-dihydroquinazolin-3(2H)-yl]acetamido}benzoate], the IC50 at EGFR^T790M was found to be 0.86 ± 0.5 µM; against VEGFR-2, 2 ± 0.25 µM. For the same compound, the EC50 in the data set with A549 worked out at 8.45 ± 0.7 µM; in the data set on MCF-7 it was 11.6 ± 0.7 µM; in the data set on HCT116, 11.4 ± 0.7 µM; with HepG2, 12.5 ± 0.7 µM.

As to `CCn1c(=O)n(CC(=O)Nc2ccc(C(=O)NN=Cc3ccc(OC)cc3)cc2)c(=O)c2cc(I)ccc21` [Compound 9c, 2-[1-Ethyl-6-iodo-2,4-dioxo-1,4-dihydroquinazolin-3(2H)-yl]-N-{4-[2-(4-methoxybenzylidene)-hydrazine-1-carbonyl]phenyl}acetamide], the half-inhibitory concentration (IC50) against EGFR^T790M was 0.22 ± 0.3 µM; against EGFR^WT, 0.15 ± 0.03 µM; against VEGFR-2 it was 0.85 ± 0.1 µM. In addition, the CC50 (usually the concentration at which the toxic effect on the cells reaches its halfway point) in data set [1] amounted to 55 ± 0.5 µM. The “Selectivity index (SI): folds toxicity” value with A549 turned out to be 10.48 folds. The EC50 amounted to 5.25 ± 0.5 µM in the data set on A549, 6 ± 0.5 µM in the data set with MCF-7, 5.17 ± 0.5 µM in the data set on HCT116 and 5 ± 0.5 µM in the data set on HepG2. Moreover, in the data set with MCF-7, the “Selectivity index (SI): folds toxic in MCF-7 than in normal VERO cells” value was 9.17 folds. In addition, the “Selectivity index (SI): folds lethalness” value with HCT116 was 10.64 folds. For the same compound, in the data set on HepG2, the “Selectivity index (SI): folds more toxic respecting HepG2 than normal VERO cells” value came to 11.00 folds.

With `CCCn1c(=O)n(CC(=O)Nc2ccc(C(=O)OC)cc2)c(=O)c2cc(I)ccc21` [Compound 5c, Methyl 4-{2-[6-iodo-2,4-dioxo-1-propyl-1,4-dihydroquinazolin-3(2H)-yl]acetamido}benzoate], the IC50 worked out at 0.92 ± 0.5 µM against EGFR^T790M and 1.5 ± 0.5 µM at VEGFR-2. Also, the half-maximal effective concentration (EC50) in the data set with A549 stood at 6.73 ± 0.7 µM; with MCF-7, 7.96 ± 0.7 µM; with HCT116, 6.93 ± 0.7 µM; in the data set on HepG2 it was 7.75 ± 0.7 µM.

With `CCn1c(=O)n(CC(=O)Nc2ccc(C(=O)NN)cc2)c(=O)c2cc(I)ccc21` [Compound 7a, 2-(1-Ethyl-6-iodo-2,4-dioxo-1,4-dihydroquinazolin-3(2H)-yl)-N-(4-(hydrazinecarbonyl)phenyl)-acetamide], the values for the IC50 on EGFR^T790M and at VEGFR-2 were 1.5 ± 0.5 µM and 2.5 ± 0.25 µM, respectively. Further, the EC50 stood at 13.7 ± 1.5 µM in the data set on A549, 15.5 ± 1.5 µM in the data set with MCF-7, 13.2 ± 1.5 µM in the data set on HCT116 and 16 ± 1.5 µM with HepG2.

Take `CCn1c(=O)n(CC(=O)Nc2ccc(C(=O)NN=Cc3ccc(C)cc3)cc2)c(=O)c2cc(I)ccc21` [Compound 9b, 2-[1-Ethyl-6-iodo-2,4-dioxo-1,4-dihydroquinazolin-3(2H)-yl]-N-{4-[2-(4-methylbenzylidene)hydrazine-1-carbonyl]phenyl}acetamide]: the IC50 against EGFR^T790M was found to be 0.5 ± 0.35 µM; at EGFR^WT, 0.35 ± 0.03 µM; against VEGFR-2, 0.9 ± 0.1 µM. This compound also showed a CC50 in data set [1] of 49.2 ± 0.5 µM. For the same compound, the “Selectivity index (SI): folds toxicity” value in the data set with A549 is reported as 7.30 folds. Besides, the half-maximal effective concentration (EC50) with A549 turned out to be 6.75 ± 0.6 µM; in the data set on MCF-7, 6.7 ± 0.6 µM; in the data set on HCT116, 5.93 ± 0.6 µM; in the data set with HepG2 it was 6.2 ± 0.7 µM. The “Selectivity index (SI): folds toxic in MCF-7 than in normal VERO cells” value with MCF-7 is given as 7.35 folds. The “Selectivity index (SI): folds lethalness” value in the data set on HCT116 is recorded as 8.31 folds. The “Selectivity index (SI): folds more toxic respecting HepG2 than normal VERO cells” value in the data set with HepG2 was determined as 7.94 folds.

For the compound `CCCn1c(=O)n(CC(=O)Nc2ccc(C(=O)NC)cc2)c(=O)c2cc(I)ccc21` [Compound 6b, 4-{2-[6-Iodo-2,4-dioxo-1-propyl-1,4-dihydroquinazolin-3(2H)-yl]acetamido}-N-methylbenzamide], the figures for the half-inhibitory concentration (IC50) at EGFR^T790M and at VEGFR-2 were 0.6 ± 0.35 µM and 1.65 ± 0.1 µM, respectively. The EC50 with A549 was determined as 6.7 ± 0.8 µM; in the data set with MCF-7, 8.15 ± 0.8 µM; in the data set on HCT116, 8.35 ± 0.8 µM; in the data set with HepG2 it was 8.5 ± 0.8 µM.

With `CCOC(=O)c1ccc(NC(=O)Cn2c(=O)c3cc(I)ccc3n(CC)c2=O)cc1` [Compound 5b, Ethyl 4-{2-[1-ethyl-6-iodo-2,4-dioxo-1,4-dihydroquinazolin-3(2H)-yl]acetamido}benzoate], the results for the IC50 against EGFR^T790M and on VEGFR-2 were 0.8 ± 0.5 µM and 1.5 ± 0.1 µM, respectively. Also, the EC50 is 6.78 ± 0.7 µM in the data set on A549, 7.4 ± 0.7 µM in the data set with MCF-7, 6.55 ± 0.7 µM in the data set with HCT116 and 7.59 ± 0.7 µM in the data set on HepG2.

In the case of `CCn1c(=O)n(CC(=O)Nc2ccc(-c3nnc(S)o3)cc2)c(=O)c2cc(I)ccc21` [Compound 8a, 2-[1-Ethyl-6-iodo-2,4-dioxo-1,4-dihydroquinazolin-3(2H)-yl]-N-[4-(5-mercapto-1,3,4-oxadiazol-2-yl)phenyl]acetamide], the IC50 came to 1 ± 0.5 µM on EGFR^T790M and 1.5 ± 0.1 µM on VEGFR-2. Moreover, the EC50 in the data set with A549 came to 10.1 ± 0.9 µM; in the data set with MCF-7, 8.25 ± 0.9 µM; in the data set with HCT116, 7.25 ± 0.9 µM; in the data set with HepG2, 7.55 ± 0.9 µM.

Consider `CCNC(=O)c1ccc(NC(=O)Cn2c(=O)c3cc(I)ccc3n(CC)c2=O)cc1` [Compound 6a, 4-{2-[1-Ethyl-6-iodo-2,4-dioxo-1,4-dihydroquinazolin-3(2H)-yl]acetamido}-N-ethylbenzamide], for which the IC50 against EGFR^T790M was 0.9 ± 0.5 µM; on VEGFR-2, 1.4 ± 0.2 µM. The EC50 is 7.95 ± 0.8 µM in the data set on A549, 8.5 ± 0.8 µM in the data set with MCF-7, 7.6 ± 0.8 µM with HCT116 and 7.8 ± 0.8 µM in the data set on HepG2.

With `CNC(=O)c1cc(Oc2ccc(NC(=O)Nc3ccc(Cl)c(C(F)(F)F)c3)cc2)ccn1` [Sorafenib, reference compound], the EC50 with A549 was determined as 4.04 ± 0.33 µM; with HCT116 it was 5.58 ± 0.55 µM; in the data set with HepG2, 4 ± 0.33 µM.
